Measurements taken from US7118895B2, “Process for producing aglycon by using diglycosidase and flavor-improved food containing the aglycon and converting agent to be used in the process” (Amano Enzyme Inc., priority 2000, dated 2006).

Key:
[1] = system: Diglycosidase derived from P. multicolor; experiment: Reactivity toward various isoflavone glycosides (HPLC); assay type: biochemical, Penicillium multicolor; set-up: glucoside / aglycon: unit not given here; conditions: 55 °C, pH 4.0
Method: Diglycosidase was diluted with an acetate buffer of pH 4.0 to prepare a 0.75 AU/mL enzyme solution. As references, a similar operation was conducted using β-glucosidase (manufactured by Fluka) derived from Aspergillus niger, β-glucosidase (manufactured by Sigma) derived from almond, β-xylosidase derived from pectinase G (manufactured by Amano Enzyme Inc.). Each of purified products of isoflavone glycosides (glycitin, acetylglycitin, malonylglycitin, daidzin, acetyldaidzin, malonyldaidzin, genistin, acetylgenistin, malonylgenistin, all manufactured by Nacalai Tesque, Inc.) was dissolved in methanol to prepare each 2 mM substrate solution. The reaction was carried out by mixing 10 μL of a substrate solution, 200 μL of 20 mM acetate buffer (pH 4.0), and 40 μL of each purified enzyme solution at a total liquid volume of 250 μL. The reaction was carried out at 55° C. and isolation of an aglycon isoflavone from an isoflavone glycoside in the reaction mixture was detected by HLPC at 0, 1, 3, and 6 hours of the reaction.
To the reaction mixture was added 700 μL of ethanol, followed by stirring and ultrasonication. After centrifugation at 15,000 rpm and 4° C. for 10 minutes, the supernatant was filtered through a filter and then the filtrate was applied to HPLC.
The isoflavone glycoside and aglycon isoflavone contained in the filtrate was separated and detected by a high performance liquid chromatography (HPLC, Shimadzu CLASS LC-10 system) using TOSOH TSK gel ODS-80TM column (manufactured by Tosoh Corporation). […] The absorbance at 260 nm was detected by a UV detector (Shimadzu, SPD-10AV). Using purified products (manufactured by Nacalai Tesque, Inc.) of the above isoflavone glycosides and aglycon isoflavones, the isoflavone glycoside and aglycon isoflavone were quantitatively determined according to a calibration curve method. By the way, unless otherwise stated, the measuring conditions of HPLC herein mean those described in the example.

[2] = system: Crude diglycosidase; experiment: Examination of substrate concentration in the conversion into isoflavone aglycons by diglycosidase using soybean materials; assay type: biochemical, Penicillium multicolor IAM7153;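 for Decomposition efficiency: ratio of each glycoside/aglycon within its isoflavone family: percent of the isoflavone family total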
Procedure, shortened: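 Reaction at 55° C, shaken, pH 4.0 (20 mM acetate), using crude diglycosidase from a 1.88 AU/mL enzyme solution on soy flour, soymilk, defatted soybean or soy protein concentrate at 2, 5, 10, 20 or 30% (w/v). Isoflavone aglycons quantified by HPLC of ethanol extracts at 0, 1, 3, 6 h.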

SMILES: CC(=O)OC[C@H]1O[C@@H](Oc2cc(O)c3c(=O)c(-c4ccc(O)cc4)coc3c2)[C@H](O)[C@@H](O)[C@@H]1O [acetylgenistin, 6″-O-acetylgenistin]
- aglycon ([1]; Reaction time 0 h): 0
- glucoside ([1]; Reaction time 0 h): 100
- aglycon ([1]; Reaction time 1 h): 99.8
- glucoside ([1]; Reaction time 1 h): 0.2
- aglycon ([1]; Reaction time 3 h): 99.9
- glucoside ([1]; Reaction time 3 h): 0.1
- aglycon ([1]; Reaction time 6 h): 99.8
- glucoside ([1]; Reaction time 6 h): 0.2
- Decomposition efficiency: ratio of each glycoside/aglycon within its isoflavone family ([2]; concentrated soybean protein, substrate concentration 2%, heat treatment of enzyme no, reaction time 0 h): 42.9%
- Decomposition efficiency: ratio of each glycoside/aglycon within its isoflavone family ([2]; concentrated soybean protein, substrate concentration 2%, heat treatment of enzyme no, reaction time 1 h): 20.0%
- Decomposition efficiency: ratio of each glycoside/aglycon within its isoflavone family ([2]; concentrated soybean protein, substrate concentration 2%, heat treatment of enzyme no, reaction time 3 h): 8.3%
- Decomposition efficiency: ratio of each glycoside/aglycon within its isoflavone family ([2]; concentrated soybean protein, substrate concentration 2%, heat treatment of enzyme no, reaction time 6 h): 3.3%
- Decomposition efficiency: ratio of each glycoside/aglycon within its isoflavone family ([2]; concentrated soybean protein, substrate concentration 2%, heat treatment of enzyme yes, reaction time 6 h): 41.3%
- Decomposition efficiency: ratio of each glycoside/aglycon within its isoflavone family ([2]; concentrated soybean protein, substrate concentration 5%, heat treatment of enzyme no, reaction time 0 h): 43.1%
- Decomposition efficiency: ratio of each glycoside/aglycon within its isoflavone family ([2]; concentrated soybean protein, substrate concentration 5%, heat treatment of enzyme no, reaction time 1 h): 36.4%
- Decomposition efficiency: ratio of each glycoside/aglycon within its isoflavone family ([2]; concentrated soybean protein, substrate concentration 5%, heat treatment of enzyme no, reaction time 3 h): 26.3%
- Decomposition efficiency: ratio of each glycoside/aglycon within its isoflavone family ([2]; concentrated soybean protein, substrate concentration 5%, heat treatment of enzyme no, reaction time 6 h): 17.8%
- Decomposition efficiency: ratio of each glycoside/aglycon within its isoflavone family ([2]; concentrated soybean protein, substrate concentration 5%, heat treatment of enzyme yes, reaction time 6 h): 41.7%
- Decomposition efficiency: ratio of each glycoside/aglycon within its isoflavone family ([2]; concentrated soybean protein, substrate concentration 10%, heat treatment of enzyme no, reaction time 0 h): 43.4%
- Decomposition efficiency: ratio of each glycoside/aglycon within its isoflavone family ([2]; concentrated soybean protein, substrate concentration 10%, heat treatment of enzyme no, reaction time 1 h): 42.8%
- Decomposition efficiency: ratio of each glycoside/aglycon within its isoflavone family ([2]; concentrated soybean protein, substrate concentration 10%, heat treatment of enzyme no, reaction time 3 h): 37.3%
- Decomposition efficiency: ratio of each glycoside/aglycon within its isoflavone family ([2]; concentrated soybean protein, substrate concentration 10%, heat treatment of enzyme no, reaction time 6 h): 33.2%
- Decomposition efficiency: ratio of each glycoside/aglycon within its isoflavone family ([2]; concentrated soybean protein, substrate concentration 10%, heat treatment of enzyme yes, reaction time 6 h): 42.8%
- Decomposition efficiency: ratio of each glycoside/aglycon within its isoflavone family ([2]; concentrated soybean protein, substrate concentration 20%, heat treatment of enzyme no, reaction time 0 h): 43.7%
- Decomposition efficiency: ratio of each glycoside/aglycon within its isoflavone family ([2]; concentrated soybean protein, substrate concentration 20%, heat treatment of enzyme no, reaction time 1 h): 47.0%
- Decomposition efficiency: ratio of each glycoside/aglycon within its isoflavone family ([2]; concentrated soybean protein, substrate concentration 20%, heat treatment of enzyme no, reaction time 3 h): 44.6%
- Decomposition efficiency: ratio of each glycoside/aglycon within its isoflavone family ([2]; concentrated soybean protein, substrate concentration 20%, heat treatment of enzyme no, reaction time 6 h): 42.3%
- Decomposition efficiency: ratio of each glycoside/aglycon within its isoflavone family ([2]; concentrated soybean protein, substrate concentration 20%, heat treatment of enzyme yes, reaction time 6 h): 43.2%
- Decomposition efficiency: ratio of each glycoside/aglycon within its isoflavone family ([2]; concentrated soybean protein, substrate concentration 30%, heat treatment of enzyme no, reaction time 0 h): 43.5%
- Decomposition efficiency: ratio of each glycoside/aglycon within its isoflavone family ([2]; concentrated soybean protein, substrate concentration 30%, heat treatment of enzyme no, reaction time 1 h): 65.3%
- Decomposition efficiency: ratio of each glycoside/aglycon within its isoflavone family ([2]; concentrated soybean protein, substrate concentration 30%, heat treatment of enzyme no, reaction time 3 h): 61.0%
- Decomposition efficiency: ratio of each glycoside/aglycon within its isoflavone family ([2]; concentrated soybean protein, substrate concentration 30%, heat treatment of enzyme no, reaction time 6 h): 55.9%
- Decomposition efficiency: ratio of each glycoside/aglycon within its isoflavone family ([2]; concentrated soybean protein, substrate concentration 30%, heat treatment of enzyme yes, reaction time 6 h): 42.4%
- Decomposition efficiency: ratio of each glycoside/aglycon within its isoflavone family ([2]; roasted soy flour, substrate concentration 2%, heat treatment of enzyme no, reaction time 0 h): 44.7%
- Decomposition efficiency: ratio of each glycoside/aglycon within its isoflavone family ([2]; roasted soy flour, substrate concentration 2%, heat treatment of enzyme no, reaction time 1 h): 10.6%
- Decomposition efficiency: ratio of each glycoside/aglycon within its isoflavone family ([2]; roasted soy flour, substrate concentration 2%, heat treatment of enzyme no, reaction time 3 h): 5.0%
- Decomposition efficiency: ratio of each glycoside/aglycon within its isoflavone family ([2]; roasted soy flour, substrate concentration 2%, heat treatment of enzyme no, reaction time 6 h): 1.5%
- Decomposition efficiency: ratio of each glycoside/aglycon within its isoflavone family ([2]; roasted soy flour, substrate concentration 2%, heat treatment of enzyme yes, reaction time 6 h): 45.0%
- Decomposition efficiency: ratio of each glycoside/aglycon within its isoflavone family ([2]; roasted soy flour, substrate concentration 5%, heat treatment of enzyme no, reaction time 0 h): 44.7%
- Decomposition efficiency: ratio of each glycoside/aglycon within its isoflavone family ([2]; roasted soy flour, substrate concentration 5%, heat treatment of enzyme no, reaction time 1 h): 22.1%
- Decomposition efficiency: ratio of each glycoside/aglycon within its isoflavone family ([2]; roasted soy flour, substrate concentration 5%, heat treatment of enzyme no, reaction time 3 h): 15.2%
- Decomposition efficiency: ratio of each glycoside/aglycon within its isoflavone family ([2]; roasted soy flour, substrate concentration 5%, heat treatment of enzyme no, reaction time 6 h): 9.2%
- Decomposition efficiency: ratio of each glycoside/aglycon within its isoflavone family ([2]; roasted soy flour, substrate concentration 5%, heat treatment of enzyme yes, reaction time 6 h): 44.7%
- Decomposition efficiency: ratio of each glycoside/aglycon within its isoflavone family ([2]; roasted soy flour, substrate concentration 10%, heat treatment of enzyme no, reaction time 0 h): 38.2%
- Decomposition efficiency: ratio of each glycoside/aglycon within its isoflavone family ([2]; roasted soy flour, substrate concentration 10%, heat treatment of enzyme no, reaction time 1 h): 33.3%
- Decomposition efficiency: ratio of each glycoside/aglycon within its isoflavone family ([2]; roasted soy flour, substrate concentration 10%, heat treatment of enzyme no, reaction time 3 h): 25.3%
- Decomposition efficiency: ratio of each glycoside/aglycon within its isoflavone family ([2]; roasted soy flour, substrate concentration 10%, heat treatment of enzyme no, reaction time 6 h): 18.7%
- Decomposition efficiency: ratio of each glycoside/aglycon within its isoflavone family ([2]; roasted soy flour, substrate concentration 10%, heat treatment of enzyme yes, reaction time 6 h): 45.9%
- Decomposition efficiency: ratio of each glycoside/aglycon within its isoflavone family ([2]; roasted soy flour, substrate concentration 20%, heat treatment of enzyme no, reaction time 0 h): 46.1%
- Decomposition efficiency: ratio of each glycoside/aglycon within its isoflavone family ([2]; roasted soy flour, substrate concentration 20%, heat treatment of enzyme no, reaction time 1 h): 44.1%
- Decomposition efficiency: ratio of each glycoside/aglycon within its isoflavone family ([2]; roasted soy flour, substrate concentration 20%, heat treatment of enzyme no, reaction time 3 h): 35.8%
- Decomposition efficiency: ratio of each glycoside/aglycon within its isoflavone family ([2]; roasted soy flour, substrate concentration 20%, heat treatment of enzyme no, reaction time 6 h): 28.6%
- Decomposition efficiency: ratio of each glycoside/aglycon within its isoflavone family ([2]; roasted soy flour, substrate concentration 20%, heat treatment of enzyme yes, reaction time 6 h): 46.2%
- Decomposition efficiency: ratio of each glycoside/aglycon within its isoflavone family ([2]; roasted soy flour, substrate concentration 30%, heat treatment of enzyme no, reaction time 0 h): 46.7%
- Decomposition efficiency: ratio of each glycoside/aglycon within its isoflavone family ([2]; roasted soy flour, substrate concentration 30%, heat treatment of enzyme no, reaction time 1 h): 46.6%
- Decomposition efficiency: ratio of each glycoside/aglycon within its isoflavone family ([2]; roasted soy flour, substrate concentration 30%, heat treatment of enzyme no, reaction time 3 h): 41.4%
- Decomposition efficiency: ratio of each glycoside/aglycon within its isoflavone family ([2]; roasted soy flour, substrate concentration 30%, heat treatment of enzyme no, reaction time 6 h): 37.8%
- Decomposition efficiency: ratio of each glycoside/aglycon within its isoflavone family ([2]; roasted soy flour, substrate concentration 30%, heat treatment of enzyme yes, reaction time 6 h): 46.1%
- Decomposition efficiency of genistin family in defatted soybean ([2]; substrate concentration 2%, heat treatment of enzyme no, reaction time 0 h): 1.8
- Decomposition efficiency of genistin family in defatted soybean ([2]; substrate concentration 2%, heat treatment of enzyme no, reaction time 1 h): not detected
- Decomposition efficiency of genistin family in defatted soybean ([2]; substrate concentration 2%, heat treatment of enzyme no, reaction time 3 h): not detected
- Decomposition efficiency of genistin family in defatted soybean ([2]; substrate concentration 2%, heat treatment of enzyme no, reaction time 6 h): not detected
- Decomposition efficiency of genistin family in defatted soybean ([2]; substrate concentration 2%, heat treatment of enzyme yes, reaction time 6 h): 1.5
- Decomposition efficiency of genistin family in defatted soybean ([2]; substrate concentration 5%, heat treatment of enzyme no, reaction time 0 h): 1.9
- Decomposition efficiency of genistin family in defatted soybean ([2]; substrate concentration 5%, heat treatment of enzyme no, reaction time 1 h): 0.8
- Decomposition efficiency of genistin family in defatted soybean ([2]; substrate concentration 5%, heat treatment of enzyme no, reaction time 3 h): 0.5
- Decomposition efficiency of genistin family in defatted soybean ([2]; substrate concentration 5%, heat treatment of enzyme no, reaction time 6 h): 0.3
- Decomposition efficiency of genistin family in defatted soybean ([2]; substrate concentration 5%, heat treatment of enzyme yes, reaction time 6 h): 1.8
- Decomposition efficiency of genistin family in defatted soybean ([2]; substrate concentration 10%, heat treatment of enzyme no, reaction time 0 h): 1.9
- Decomposition efficiency of genistin family in defatted soybean ([2]; substrate concentration 10%, heat treatment of enzyme no, reaction time 1 h): 1.3
- Decomposition efficiency of genistin family in defatted soybean ([2]; substrate concentration 10%, heat treatment of enzyme no, reaction time 3 h): 0.9
- Decomposition efficiency of genistin family in defatted soybean ([2]; substrate concentration 10%, heat treatment of enzyme no, reaction time 6 h): 0.6
- Decomposition efficiency of genistin family in defatted soybean ([2]; substrate concentration 10%, heat treatment of enzyme yes, reaction time 6 h): 1.7
